Measured values from ChEMBL document CHEMBL4420076, “Amylin and calcitonin receptor agonist” (2017).
Numbered stars: 1 amine (or outer) side, 2 acyl side, 3 side chain; on linkers, the order of the positions; unused ones are H or OH. Peptide text beside a SMILES is read from it. * marks the point of attachment. C20 diacid = O=C(O)CCCCCCCCCCCCCCCCCCC(=O)*; γGlu = O=C(O)[C@H](CCC(=O)[*:2])N[*:1]

Assays:
Calcitonin receptor [1] = biological target: T1, Calcitonin receptor (Homo sapiens, UniProt P30988); assay: Agonist activity at human calcitonin receptor expressed in BHK570 cells assessed as increase in intracellular cAMP concentration incubated for 3 hrs in absence of albumin by CRE luciferase reporter gene assay; format: functional, cell-based
T1 sequence (P30988 whole entry): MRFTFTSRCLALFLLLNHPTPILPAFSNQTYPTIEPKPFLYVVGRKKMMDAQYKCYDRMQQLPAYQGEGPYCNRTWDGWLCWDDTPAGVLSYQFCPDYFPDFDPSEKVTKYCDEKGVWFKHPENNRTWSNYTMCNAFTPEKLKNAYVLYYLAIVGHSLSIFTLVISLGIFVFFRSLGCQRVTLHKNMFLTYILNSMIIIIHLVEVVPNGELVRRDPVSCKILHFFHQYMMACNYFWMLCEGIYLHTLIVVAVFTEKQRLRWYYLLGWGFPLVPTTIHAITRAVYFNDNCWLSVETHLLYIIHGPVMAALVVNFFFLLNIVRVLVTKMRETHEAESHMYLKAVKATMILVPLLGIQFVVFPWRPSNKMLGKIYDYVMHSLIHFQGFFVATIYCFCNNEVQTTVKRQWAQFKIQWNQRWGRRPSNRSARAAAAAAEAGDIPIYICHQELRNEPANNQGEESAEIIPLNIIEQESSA

Calcitonin receptor [2] = biological target: T1, Calcitonin receptor; assay: Agonist activity at human calcitonin receptor expressed in BHK570 cells assessed as increase in intracellular cAMP concentration incubated for 3 hrs in presence of 10% FBS by CRE luciferase reporter gene assay; format: functional, cell-based
[3] = biological target: T2, Amylin receptor AMY3; CALCR/RAMP3 (Homo sapiens, UniProt O60896+P30988); assay: Agonist activity at human amylin receptor expressed in BHK570 cells co-expressing RAMP3 assessed as increase in intracellular cAMP concentration incubated for 3 hrs in presence of 10% FBS by CRE luciferase reporter gene assay; format: functional, cell-based
T2 sequence (P30988 whole entry): T1 sequence (P30988 whole entry)
T2 sequence (O60896 whole entry): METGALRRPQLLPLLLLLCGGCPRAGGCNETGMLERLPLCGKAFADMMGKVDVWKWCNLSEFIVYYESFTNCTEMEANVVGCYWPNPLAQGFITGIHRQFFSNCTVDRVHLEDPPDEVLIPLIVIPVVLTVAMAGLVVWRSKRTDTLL

Calcitonin receptor [4] = biological target: T1, Calcitonin receptor; assay: Displacement of [125I]-labeled human calcitonin from human calcitonin receptor expressed in BHK tkts13 cell membranes incubated for 1 hr by scintillation proximity assay
[5] = Solubility in 100 mM bistrispropane buffer at pH 8.0 incubated for 18 hrs by UPLC analysis; format: physicochemical
[6] = biological target: T2, Amylin receptor AMY3; CALCR/RAMP3; assay: Displacement of [125I]-labeled rat amylin from human amylin receptor expressed in BHK tkts13 whole cells co-expressing RAMP3 incubated for 60 mins by scintillation proximity assay; format: cell-based
[7] = biological target: T3, Amylin receptor AMY3; CALCR/RAMP3 (Rattus norvegicus, UniProt P32214+Q9JJ73); assay: Displacement of [125I]-labeled rat amylin from rat amylin receptor expressed in BHK tkts13 cell membranes co-expressing RAMP3 incubated for 120 mins by scintillation proximity assay
T3 sequence (P32214 whole entry): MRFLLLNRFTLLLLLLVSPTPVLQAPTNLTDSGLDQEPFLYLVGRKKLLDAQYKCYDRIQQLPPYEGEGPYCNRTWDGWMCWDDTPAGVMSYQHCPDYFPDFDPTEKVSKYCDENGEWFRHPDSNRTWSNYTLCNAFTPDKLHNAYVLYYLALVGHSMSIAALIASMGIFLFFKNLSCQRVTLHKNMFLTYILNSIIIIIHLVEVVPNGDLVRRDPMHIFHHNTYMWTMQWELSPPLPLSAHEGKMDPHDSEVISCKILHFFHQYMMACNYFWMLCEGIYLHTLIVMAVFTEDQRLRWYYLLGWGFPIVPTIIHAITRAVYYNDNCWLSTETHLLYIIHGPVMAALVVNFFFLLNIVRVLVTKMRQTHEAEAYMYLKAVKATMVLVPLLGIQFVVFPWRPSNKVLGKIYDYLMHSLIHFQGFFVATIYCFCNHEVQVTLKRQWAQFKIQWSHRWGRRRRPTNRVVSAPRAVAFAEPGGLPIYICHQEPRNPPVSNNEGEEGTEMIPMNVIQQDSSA
T3 sequence (Q9JJ73 whole entry): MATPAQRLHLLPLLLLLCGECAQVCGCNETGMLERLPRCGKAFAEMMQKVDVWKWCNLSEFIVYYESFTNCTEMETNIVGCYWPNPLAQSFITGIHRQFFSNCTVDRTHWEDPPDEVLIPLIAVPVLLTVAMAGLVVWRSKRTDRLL

[8] = Solubility in 100 mM bistrispropane buffer at pH 7.5 incubated for 18 hrs by UPLC analysis; format: physicochemical
[9] = Solubility in 100 mM bistrispropane buffer at pH 7.0 incubated for 18 hrs by UPLC analysis; format: physicochemical
[10] = Solubility in 100 mM glycylglycine buffer at pH 4.0 incubated for 18 hrs by UPLC analysis; format: physicochemical
[11] = Solubility in 100 mM bistrispropane buffer at pH 6.0 incubated for 18 hrs by UPLC analysis; format: physicochemical
[12] = Solubility in 100 mM bistrispropane buffer at pH 6.5 incubated for 18 hrs by UPLC analysis; format: physicochemical
[13] = Solubility in 100 mM glycylglycine buffer at pH 5.0 incubated for 18 hrs by UPLC analysis; format: physicochemical
[14] = biological target: T2, Amylin receptor AMY3; CALCR/RAMP3; assay: Displacement of [125I]-labeled rat amylin from human amylin receptor expressed in BHK570 cell membranes co-expressing RAMP3 incubated for 120 mins by scintillation proximity assay
[15] = Solubility in 100 mM glycylglycine buffer at pH 3.0 incubated for 18 hrs by UPLC analysis; format: physicochemical
[16] = biological target: T2, Amylin receptor AMY3; CALCR/RAMP3; assay: Agonist activity at human amylin receptor expressed in BHK570 cells co-expressing RAMP3 assessed as increase in intracellular cAMP concentration incubated for 3 hrs in absence of albumin by CRE luciferase reporter gene assay; format: functional, cell-based
Rattus norvegicus [17] = assay: Reduction in food intake in Sprague-Dawley rat at 3 nmol/kg measured 0 to 24 hrs post dose relative to control; format: functional; design: scale not given: the % may be the effect or the level left
Rattus norvegicus [18] = assay: Reduction in food intake in Sprague-Dawley rat at 3 nmol/kg measured 24 to 48 hrs post dose relative to control; format: functional; design: scale not given: the % may be the effect or the level left

## CC(C)C[C@H](NC(=O)[C@H](C)NC(=O)[C@H](C)NC(=O)[C@@H](NC(=O)[C@H](CO)NC(=O)[C@H](CC(C)C)NC(=O)[C@H](CCC(=O)O)NC(=O)[C@H](CO)NC(=O)[C@H](C)NC(=O)CC[C@H](NC(=O)CCCCCCCCCCCCCCCCCCC(=O)O)C(=O)O)[C@@H](C)O)C(=O)NCC(=O)N[C@@H](CCCNC(=N)N)C(=O)N[C@@H](CC(C)C)C(=O)N[C@@H](CO)C(=O)N[C@@H](C)C(=O)N[C@@H](CCC(=O)O)C(=O)N[C@@H](CC(C)C)C(=O)N[C@@H](Cc1cnc[nH]1)C(=O)N[C@@H](CCC(=O)O)C(=O)N[C@@H](CC(C)C)C(=O)N[C@@H](C)C(=O)N[C@H](C(=O)N[C@@H](Cc1ccc(O)cc1)C(=O)N1CCC[C@H]1C(=O)N[C@@H](CCCNC(=N)N)C(=O)N[C@H](C(=O)N[C@@H](CCC(=O)O)C(=O)N[C@H](C(=O)NCC(=O)N[C@@H](CO)C(=O)NCC(=O)N[C@@H](C)C(=O)N1CCC[C@H]1C(N)=O)[C@@H](C)O)[C@@H](C)O)[C@@H](C)O ({C20 diacid-γGlu}-ASELSTAALGRLSAELHELATYPRTETGSGAP-NH2)
Calcitonin receptor [1]
  EC50: 0.041 nM
Calcitonin receptor [2]
  EC50: 0.037 nM
[3]
  EC50: 0.1 nM
Calcitonin receptor [4]
  IC50: 0.102 nM
[5]
  solubility at 18 h: ≥ 200 µM
[6]
  IC50: 2.02 nM
[7]
  IC50: 0.026 nM
[8]
  solubility at 18 h: ≥ 200 µM
[9]
  solubility at 18 h: ≥ 200 µM
[10]
  solubility at 18 h: ≥ 200 µM
[11]
  solubility at 18 h: ≥ 200 µM
[12]
  solubility at 18 h: ≥ 200 µM
[13]
  solubility at 18 h: ≥ 200 µM
[14]
  IC50: 0.141 nM
[15]
  solubility at 18 h: ≥ 200 µM

## CC(C)C[C@H](NC(=O)CNC(=O)[C@H](CO)NC(=O)[C@H](C)NC(=O)CC[C@H](NC(=O)CCCCCCCCCCCCCCCCCCC(=O)O)C(=O)O)C(=O)N[C@@H](CO)C(=O)N[C@H](C(=O)N[C@@H](C)C(=O)N[C@@H](C)C(=O)N[C@@H](CC(C)C)C(=O)NCC(=O)N[C@@H](CCCNC(=N)N)C(=O)N[C@@H](CC(C)C)C(=O)N[C@@H](CO)C(=O)N[C@@H](CCC(N)=O)C(=O)N[C@@H](CCC(=O)O)C(=O)N[C@@H](CC(C)C)C(=O)N[C@@H](Cc1cnc[nH]1)C(=O)N[C@@H](CCC(=O)O)C(=O)N[C@@H](CC(C)C)C(=O)N[C@@H](CCC(N)=O)C(=O)N[C@H](C(=O)N[C@@H](Cc1ccc(O)cc1)C(=O)N1CCC[C@H]1C(=O)N[C@@H](Cc1cnc[nH]1)C(=O)N[C@H](C(=O)N[C@@H](CCC(=O)O)C(=O)N[C@H](C(=O)NCC(=O)N[C@@H](CO)C(=O)NCC(=O)N[C@H](C(=O)N[C@@H](Cc1ccc(O)cc1)C(N)=O)[C@@H](C)O)[C@@H](C)O)[C@@H](C)O)[C@@H](C)O)[C@@H](C)O ({C20 diacid-γGlu}-ASGLSTAALGRLSQELHELQTYPHTETGSGTY-NH2)
Calcitonin receptor [1]
  EC50: 0.027 nM
Calcitonin receptor [2]
  EC50: 0.099 nM
[16]
  EC50: 0.041 nM
Calcitonin receptor [4]
  IC50: 0.15 nM
[5]
  solubility at 18 h: ≥ 200 µM
[6]
  IC50: 0.142 nM
Rattus norvegicus [17]
  Activity: 20%
[7]
  IC50: 0.026 nM
[8]
  solubility at 18 h: ≥ 200 µM
[9]
  solubility at 18 h: ≥ 200 µM
[10]
  solubility at 18 h: ≥ 200 µM
[11]
  solubility at 18 h: ≥ 200 µM
[12]
  solubility at 18 h: ≥ 200 µM
[14]
  IC50: 0.166 nM
Rattus norvegicus [18]
  Activity: 14%
[15]
  solubility at 18 h: ≥ 200 µM
